Laboratory results from US8501755B2, “Tetrahydropyridothienopyrimidine compounds and methods of use thereof” (Bayer Intellectual Property GmbH, priority 2006, dated 2013).

What was measured:
Type in all cases: cell-based
N87 = test: In vitro tumor cell proliferation assay (Cell Titer-Glo) in N87 cells; details: N87 human gastric carcinoma overexpressing HER2 and HER1; 72 hours exposure; read-out: IC50, activities in N87 cell lines
In short: (§1)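 Viability after 72 h drug exposure at 37 °C was read as CellTiter-Glo ATP luminescence, giving IC50. Cells (2.5×10^3/well, RPMI + 10% FBS) were compound-treated one day post-seeding, 0.1% DMSO final: A431 overexpresses HER1, N87 overexpresses HER2 and HER1.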

A431 cells = test: In vitro tumor cell proliferation assay (Cell Titer-Glo) in A431 cells; details: Homo sapiens, A-431, 72 h, A431 human epidermoid carcinoma overexpressing HER1; 72 hours exposure; read-out: IC50, activities in A431 cell lines
In short: as §1

H1975 cells = test: In vitro tumor cell proliferation assay (Cell Titer-Glo) in H1975 cells; details: NCI-H1975; H1975 human NSCLC expressing mutant HER1 (L858R,T790M); 72 hours exposure; read-out: IC50, activities in H 1975 cell lines
In short: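 After 72 h compound exposure at 37° C (top 10 uM down to 64 pM, 0.1% DMSO), viability of EGFR L858R/T790M-mutant H1975 cells was read as ATP luminescence.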

Row | IC50 (N87) | IC50 (A431 cells) | IC50 (H1975 cells) | SMILES
1 | < 200 nM | 1000 to 10000 nM | 1000 to 10000 nM | CC1CN(C/C=C/C(=O)N2CCc3c(sc4ncnc(Nc5ccc(OCc6ccccn6)c(Cl)c5)c34)C2)CC(C)O1 (stereo not drawn) [Example 53, N-[3-chloro-4-(pyridin-2-ylmethoxy)phenyl]-7-((2E)-4-(2,6-dimethylmorpholin-4-yl)but-2-enoyl]-5,6,7,8-tetrahydropyrido [4′,3′:4,5]thieno[2,3-d]pyrimidin-4-amine]
2 | < 200 nM | 200 to 1000 nM | 200 to 1000 nM | CN(C/C=C/C(=O)N1CCc2c(sc3ncnc(Nc4ccc(F)c(Cl)c4)c23)C1)C1CCCCC1 [Example 54, N-(3-chloro-4-fluorophenyl)-7-{(2E)-4-[cyclohexyl(methyl)amino]but-2-enoyl}-5,6,7,8-tetrahydropyrido [4′,3′:4,5]thieno[2,3-d]pyrimidin-4-amine]
3 | < 200 nM | 200 to 1000 nM | 200 to 1000 nM | CC1CCCCN1C/C=C/C(=O)N1CCc2c(sc3ncnc(Nc4ccc(F)c(Cl)c4)c23)C1 (stereo not drawn) [Example 56, N-(3-chloro-4-fluorophenyl)-7-[(2E)-4-(2-methylpiperidin-1-yl)but-2-enoyl]-5,6,7,8-tetrahydropyrido [4′,3′:4,5]thieno[2,3-d]pyrimidin-4-amine]
4 | < 200 nM | 1000 to 10000 nM | 200 to 1000 nM | O=C(/C=C/CN1CCC(CCO)CC1)N1CCc2c(sc3ncnc(Nc4ccc(F)c(Cl)c4)c23)C1 [Example 57, 2-{1-[(2E)-4-{4-[(3-chloro-4-fluorophenyl)amino]-5,8-dihydropyrido [4′,3′:4,5]thieno[2,3-d]pyrimidin-7(6H)-yl}-4-oxobut-2-en-1-yl]piperidin-4-yl}ethanol]
5 | < 200 nM | 1000 to 10000 nM | 1000 to 10000 nM | O=C(/C=C/CN1CCC(O)CC1)N1CCc2c(sc3ncnc(Nc4ccc(F)c(Cl)c4)c23)C1 [Example 58, 1-[(2E)-4-{4-[(3-chloro-4-fluorophenyl)amino]-5,8-dihydropyrido [4′,3′:4,5]thieno[2,3-d]pyrimidin-7(6H)-yl}-4-oxobut-2-en-1-yl]piperidin-4-ol]
6 | < 200 nM | < 200 nM | < 200 nM | CC1CCCN1C/C=C/C(=O)N1CCc2c(sc3ncnc(Nc4ccc(F)c(Cl)c4)c23)C1 (stereo not drawn) [Example 59, N-(3-chloro-4-fluorophenyl)-7-[(2E)-4-(2-methylpyrrolidin-1-yl)but-2-enoyl]-5,6,7,8-tetrahydropyrido [4′,3′:4,5]thieno[2,3-d]pyrimidin-4-amine]
7 | < 200 nM | 200 to 1000 nM | 200 to 1000 nM | CC1CCCC(C)N1C/C=C/C(=O)N1CCc2c(sc3ncnc(Nc4ccc(F)c(Cl)c4)c23)C1 (stereo not drawn) [Example 60, N-(3-chloro-4-fluorophenyl)-7-[(2E)-4-(2,6-dimethylpiperidin-1-yl)but-2-enoyl]-5,6,7,8-tetrahydropyrido [4′,3′:4,5]thieno[2,3-d]pyrimidin-4-amine]
8 | < 200 nM | 200 to 1000 nM | 200 to 1000 nM | CCN(C/C=C/C(=O)N1CCc2c(sc3ncnc(Nc4ccc(F)c(Cl)c4)c23)C1)C1CCCCC1 [Example 61, N-(3-chloro-4-fluorophenyl)-7-{(2E)-4-[cyclohexyl(ethyl)amino]but-2-enoyl}-5,6,7,8-tetrahydropyrido [4′,3′:4,5]thieno[2,3-d]pyrimidin-4-amine]
9 | < 200 nM | 200 to 1000 nM | 200 to 1000 nM | O=C(/C=C/CN1CCN(CCO)CC1)N1CCc2c(sc3ncnc(Nc4ccc(OCc5ccccn5)c(Cl)c4)c23)C1 [Example 62, 2-(4-{(2E)-4-[4-{[3-chloro-4-(pyridin-2-ylmethoxy)phenyl]amino}-5,8-dihydropyrido [4′,3′:4,5]thieno[2,3-d]pyrimidin-7(6H)-yl]-4-oxobut-2-en-1-yl}piperazin-1-yl)ethanol]
10 | < 200 nM | 200 to 1000 nM | 200 to 1000 nM | CC(C)N(C)C/C=C/C(=O)N1CCc2c(sc3ncnc(Nc4ccc(OCc5ccccn5)c(Cl)c4)c23)C1 [Example 63, N-[3-chloro-4-(pyridin-2-ylmethoxy)phenyl]-7-{(2E)-4-[isopropyl(methyl)amino]but-2-enoyl}-5,6,7,8-tetrahydropyrido [4′,3′:4,5]thieno[2,3-d]pyrimidin-4-amine]
11 | < 200 nM | 200 to 1000 nM | 200 to 1000 nM | CC1CCCCN1C/C=C/C(=O)N1CCc2c(sc3ncnc(Nc4ccc(OCc5ccccn5)c(Cl)c4)c23)C1 (stereo not drawn) [Example 64]
12 | < 200 nM | 200 to 1000 nM | < 200 nM | CN(C/C=C/C(=O)N1CCc2c(sc3ncnc(Nc4ccc(OCc5ccccn5)c(Cl)c4)c23)C1)C(C)(C)C [Example 65, 7-{(2E)-4-[tert-butyl(methyl)amino]but-2-enoyl}-N-[3-chloro-4-(pyridin-2-ylmethoxy)phenyl]-5,6,7,8-tetrahydropyrido [4′,3′:4,5]thieno[2,3-d]pyrimidin-4-amine]
13 | < 200 nM | 200 to 1000 nM | 200 to 1000 nM | CC(C)CN(C)C/C=C/C(=O)N1CCc2c(sc3ncnc(Nc4ccc(OCc5ccccn5)c(Cl)c4)c23)C1 [Example 66, N-[3-chloro-4-(pyridin-2-ylmethoxy)phenyl]-7-{(2E)-4-[isobutyl(methyl)amino]but-2-enoyl}-5,6,7,8-tetrahydropyrido [4′,3′:4,5]thieno[2,3-d]pyrimidin-4-amine]
14 | < 200 nM | 200 to 1000 nM | 200 to 1000 nM | CC1CCCN(C/C=C/C(=O)N2CCc3c(sc4ncnc(Nc5ccc(OCc6ccccn6)c(Cl)c5)c34)C2)C1 (stereo not drawn) [Example 67, N-[3-chloro-4-(pyridin-2-ylmethoxy)phenyl]-7-[(2E)-4-(3-methylpiperidin-1-yl)but-2-enoyl]-5,6,7,8-tetrahydropyrido [4′,3′:4,5]thleno[2,3-d]pyrimidin-4-amine]
15 | < 200 nM | 200 to 1000 nM | 200 to 1000 nM | O=C(/C=C/CN1CCCCCC1)N1CCc2c(sc3ncnc(Nc4ccc(OCc5ccccn5)c(Cl)c4)c23)C1 [Example 68, 7-[(2E)-4-azepan-1-ylbut-2-enoyl]-N-[3-chloro-4-(pyridin-2-ylmethoxy)phenyl]-5,6,7,8-tetrahydropyrido [4′,3′:4,5]thieno[2,3-d]pyrimidin-4-amine]
16 | < 200 nM | 200 to 1000 nM | 200 to 1000 nM | O=C(/C=C/CN1CCCC(CO)C1)N1CCc2c(sc3ncnc(Nc4ccc(F)c(Cl)c4)c23)C1 (stereo not drawn) [Example 69, {1-[(2E)-4-{4-[(3-chloro-4-fluorophenyl)amino]-5,8-dihydropyrido [4′,3′:4,5]thieno[2,3-d]pyrimidin-7(6H)-yl}-4-oxobut-2-en-1-yl]piperidin-3-yl}methanol]
17 | < 200 nM | 1000 to 10000 nM | < 200 nM | CCN(C/C=C/C(=O)N1CCc2c(sc3ncnc(Nc4ccc(OCc5ccccn5)c(Cl)c4)c23)C1)C(C)C [Example 70, N-[3-chloro-4-(pyridin-2-ylmethoxy)phenyl]-7-{(2E)-4-[ethyl(isopropyl)amino]but-2-enoyl}-5,6,7,8-tetrahydropyrido [4′,3′:4,5]thieno[2,3-d]pyrimidin-4-amine]
18 | < 200 nM | 1000 to 10000 nM | 200 to 1000 nM | CCN(CC)C/C=C/C(=O)N1CCc2c(sc3ncnc(Nc4ccc(OCc5cnccn5)c(Cl)c4)c23)C1 [Example 72, N-[3-chloro-4-(pyrazin-2-ylmethoxy)phenyl]-7-[(2E)-4-(diethylamino)but-2-enoyl]-5,6,7,8-tetrahydropyrido [4′,3′:4,5]thieno[2,3-d]pyrimidin-4-amine]
19 | < 200 nM | 1000 to 10000 nM | 1000 to 10000 nM | CCN(CC)C/C=C/C(=O)N1CCc2c(sc3ncnc(Nc4ccc(OCc5cccc(C)n5)c(Cl)c4)c23)C1 [Example 73, N-{3-chloro-4-[(6-methylpyridin-2-yl)methoxy]phenyl}-7-[(2E)-4-(diethylamino)but-2-enoyl]-5,6,7,8-tetrahydropyrido [4′,3′:4,5]thieno[2,3-d]pyrimidin-4-amine]
20 | < 200 nM | 1000 to 10000 nM | 1000 to 10000 nM | Cc1cccc(COc2ccc(Nc3ncnc4sc5c(c34)CCN(C(=O)/C=C/CN(C)C)C5)cc2Cl)n1 [Example 74, N-{3-chloro-4-[(6-methylpyridin-2-yl)methoxy]phenyl}-7-[(2E)-4-(dimethylamino)but-2-enoyl]-5,6,7,8-tetrahydropyrido [4′,3′:4,5]thieno[2,3-d]pyrimidin-4-amine]
21 | < 200 nM | 1000 to 10000 nM | 200 to 1000 nM | Cc1cccc(COc2ccc(Nc3ncnc4sc5c(c34)CCN(C(=O)/C=C/CN3CCCCC3)C5)cc2Cl)n1 [Example 75, N-{3-chloro-4-[(6-methylpyridin-2-yl)methoxy]phenyl}-7-[(2E)-4-piperidin-1-ylbut-2-enoyl]-5,6,7,8-tetrahydropyrido [4′,3′:4,5]thieno[2,3-d]pyrimidin-4-amine]
22 | < 200 nM | 1000 to 10000 nM | 1000 to 10000 nM | CCN(C)C/C=C/C(=O)N1CCc2c(sc3ncnc(Nc4ccc(OCc5cccc(C)n5)c(Cl)c4)c23)C1 [Example 76, N-{3-chloro-4-[(6-methylpyridin-2-yl)methoxy]phenyl}-7-{(2E)-4-[ethyl(methyl)amino]but-2-enoyl}-5,6,7,8-tetrahydropyrido [4′,3′:4,5]thieno[2.3-d]pyrimidin-4-amine]
23 | < 200 nM | 1000 to 10000 nM | 200 to 1000 nM | Cc1cccc(COc2ccc(Nc3ncnc4sc5c(c34)CCN(C(=O)/C=C/CN(C)C(C)C)C5)cc2Cl)n1 [Example 77, N-{3-chloro-4-[(6-methylpyridin-2-yl)methoxy]phenyl}-7-{(2E)-4-[isopropyl(methyl)amino]but-2-enoyl}-5,6,7,8-tetrahydropyrido [4′,3′:4,5]thieno[2,3-d]pyrimidin-4-amine]
